Values quoted from earlier work, collected in patent US11103497B2, “Treatment of imatinib resistant leukemia” (Wyeth LLC, priority 2007, dated 2021).

How the values were obtained:
[1] = test system: chronic myeloid leukemia; details: patients with chronic myeloid leukemia; cited from earlier work
[2] = test system: CML cells; details: in culture; cited from earlier work
[3] = test system: CML tumors; details: nude mice; cited from earlier work

**Q.** Which results are given for `Cc1ccc(NC(=O)c2ccc(CN3CCN(C)CC3)cc2)cc1Nc1nccc(-c2cccnc2)n1` [Imatinib]?
**A.** 5-year survival rate [1]: ~90%; toxicity to CML cells [2]: toxic; regression of CML tumors [3]: causes regression
